Results from patent publication US11684607B2, “Secnidazole for use in the treatment of bacterial vaginosis” (priority 2014, dated 2023).
Where two headings read alike, the source gives them in different places.

Assay: Effect of a single 2 g dose of SYM-1219 on the plasma pharmacokinetics of EE2 and NET in healthy female subjects
Assay type: in vivo, human
Settings: for AUC(0-t) / AUC(0-inf) / Cmax: female, human, plasma
Procedure: Methods: Fifty-four (54) healthy female subjects, ages 18-65, received EE2/NET alone and in combination, where SYM-1219+EE2/NET were co-administered on Day 1 (Group B1; N=27) or SYM-1219 on Day 1 and EE2/NET on Day 2 (Group B2; N=27). Serial blood samples were drawn to measure plasma concentrations of EE2/NET. […] Safety was evaluated by recording of adverse events, vital signs, ECGs and standard laboratory tests.

[1] = Group B1: Period 2 (EE2/NET followed by SYM-1219 2 grams on Day 1) vs Period 1 (EE2/NET alone)
[2] = Group B1: SYM-1219 2 g and EE2/NET co-administered on Day 1
[3] = Group B2: Period 2 (SYM-1219 2 grams on Day 1, EE2/NET on Day 2) vs Period 1 (EE2/NET alone)

C#C[C@]1(O)CC[C@H]2[C@@H]3CCc4cc(O)ccc4[C@H]3CC[C@@]21C [EE2, ethinyl estradiol]
EE2 AUC0-t, Geometric LSMean % Ratio (100 * Test/Reference) [1]: 94.26%
EE2 AUC0-∞, Geometric LSMean % Ratio (100 * Test/Reference) [1]: 105.37%
EE2 Cmax, Geometric LSMean % Ratio (100 * Test/Reference) [1]: 71.07%
EE2 Cmax reduction [2]: 29%
change in EE2 AUC [2]: no change
EE2 AUC0-t, Geometric LSMean % Ratio (100 * Test/Reference) [3]: 99.04%
EE2 AUC0-∞, Geometric LSMean % Ratio (100 * Test/Reference) [3]: 93.32%
EE2 Cmax, Geometric LSMean % Ratio (100 * Test/Reference) [3]: 104.96%
EE2 PK alteration (Group B2: SYM-1219 2 g on Day 1, EE2/NET on Day 2): not altered
AUC(0-t) (Group B1 Period 1: EE2/NET alone, read-out: EE2 AUC0-t, Geometric Least Squares (LS) Means): 0.627 ng·h/mL
AUC(0-t) (Group B1 Period 1: EE2/NET alone, read-out: EE2 AUC0-t, Mean): 0.644 ng·h/mL
AUC(0-inf) (Group B1 Period 1: EE2/NET alone, read-out: EE2 AUC0-∞, Geometric Least Squares (LS) Means): 0.878 ng·h/mL
AUC(0-inf) (Group B1 Period 1: EE2/NET alone, read-out: EE2 AUC0-∞, Mean): 0.911 ng·h/mL
Cmax (Group B1 Period 1: EE2/NET alone, read-out: EE2 Cmax, Geometric Least Squares (LS) Means): 0.0779 ng/mL
Cmax (Group B1 Period 1: EE2/NET alone, read-out: EE2 Cmax, Mean): 0.0806 ng/mL
AUC(0-t) (Group B1 Period 2: EE2/NET followed by SYM-1219 2 grams on Day 1, read-out: EE2 AUC0-t, Geometric Least Squares (LS) Means): 0.591 ng·h/mL
AUC(0-t) (Group B1 Period 2: EE2/NET followed by SYM-1219 2 grams on Day 1, read-out: EE2 AUC0-t, Mean): 0.616 ng·h/mL
AUC(0-inf) (Group B1 Period 2: EE2/NET followed by SYM-1219 2 grams on Day 1, read-out: EE2 AUC0-∞, Geometric Least Squares (LS) Means): 0.925 ng·h/mL
AUC(0-inf) (Group B1 Period 2: EE2/NET followed by SYM-1219 2 grams on Day 1, read-out: EE2 AUC0-∞, Mean): 0.954 ng·h/mL
Cmax (Group B1 Period 2: EE2/NET followed by SYM-1219 2 grams on Day 1, read-out: EE2 Cmax, Geometric Least Squares (LS) Means): 0.0554 ng/mL
Cmax (Group B1 Period 2: EE2/NET followed by SYM-1219 2 grams on Day 1, read-out: EE2 Cmax, Mean): 0.0599 ng/mL
AUC(0-t) (Group B2 Period 1: EE2/NET alone, read-out: EE2 AUC0-t, Geometric Least Squares (LS) Means): 0.65 ng·h/mL
AUC(0-t) (Group B2 Period 1: EE2/NET alone, read-out: EE2 AUC0-t, Mean): 0.68 ng·h/mL
AUC(0-inf) (Group B2 Period 1: EE2/NET alone, read-out: EE2 AUC0-∞, Geometric Least Squares (LS) Means): 0.945 ng·h/mL
AUC(0-inf) (Group B2 Period 1: EE2/NET alone, read-out: EE2 AUC0-∞, Mean): 0.995 ng·h/mL
Cmax (Group B2 Period 1: EE2/NET alone, read-out: EE2 Cmax, Geometric Least Squares (LS) Means): 0.083 ng/mL
Cmax (Group B2 Period 1: EE2/NET alone, read-out: EE2 Cmax, Mean): 0.0891 ng/mL
AUC(0-t) (Group B2 Period 2: SYM-1219 2 grams on Day 1, EE2/NET on Day 2, read-out: EE2 AUC0-t, Geometric Least Squares (LS) Means): 0.644 ng·h/mL
AUC(0-t) (Group B2 Period 2: SYM-1219 2 grams on Day 1, EE2/NET on Day 2, read-out: EE2 AUC0-t, Mean): 0.669 ng·h/mL
AUC(0-inf) (Group B2 Period 2: SYM-1219 2 grams on Day 1, EE2/NET on Day 2, read-out: EE2 AUC0-∞, Geometric Least Squares (LS) Means): 0.882 ng·h/mL
AUC(0-inf) (Group B2 Period 2: SYM-1219 2 grams on Day 1, EE2/NET on Day 2, read-out: EE2 AUC0-∞, Mean): 0.937 ng·h/mL
Cmax (Group B2 Period 2: SYM-1219 2 grams on Day 1, EE2/NET on Day 2, read-out: EE2 Cmax, Geometric Least Squares (LS) Means): 0.0872 ng/mL
Cmax (Group B2 Period 2: SYM-1219 2 grams on Day 1, EE2/NET on Day 2, read-out: EE2 Cmax, Mean): 0.0926 ng/mL
